Key:
TgMyoA (myosinA) [1] = target: T1, TgMyoA (myosinA) (Toxoplasma gondii, UniProt O00934); assay: actin-activated ATPase (ADP-Glo) at […] compound; partial inhibition; format: biochemical
T1 construct: recombinant TgMyoA heavy chain co-expressed with TgMLC1 and TgELC1 in Sf9 cells; with TgMLC1, TgELC1

TgMyoA (myosinA) [2] = target: T1, TgMyoA (myosinA); assay: actin-activated ATPase (ADP-Glo) at […] compound; format: biochemical

Row | Compound | actin-activated ATPase (ADP-Glo) at 20 μM compound; partial inhibition (TgMyoA (myosinA) [1]) | actin-activated ATPase (ADP-Glo) at 20 μM compound (TgMyoA (myosinA) [2])
1 | Cc1ccc(C2(NCc3c[nH]nc3-c3cccs3)CC2)cc1 [VEST3] | partially retained in analogs containing p-Me (VEST3) or m,p-dichloro (VEST4) substituents | 
2 | Clc1ccc(C2(NCc3c[nH]nc3-c3cccs3)CC2)cc1 [VEST2] |  | inhibition of both in vitro ATPase activity and parasite growth were retained when the p-OMe substituent in KNX-002 was replaced
3 | Clc1ccc(C2(NCc3c[nH]nc3-c3cccs3)CC2)cc1Cl [VEST4] | partially retained in analogs containing p-Me (VEST3) or m,p-dichloro (VEST4) substituents | 

Reference: publication PMC10185354, “MyosinA is a druggable target in the widespread protozoan parasite Toxoplasma gondii” (PLOS Biology, 2023)
